{
  "source": "patent US20250082598A1",
  "about": "“Melafenoxate, 2-(1-adamantylamino)ethyl 2-(4-chlorophenoxy)acetate and derivatives thereof for treating circadian rhythm sleep disorders with neurodegenerative diseases such as Alzheimer's disease” (NLS Pharmaceutics AG, priority 2021, published 2025)",
  "key": {"NK2 (h)": {"target": "T1, NK2 (h) (Homo sapiens, UniProt P21452)", "T1 construct": "CEREP (Eurofins, France)", "T1 sequence (P21452 1-398)": "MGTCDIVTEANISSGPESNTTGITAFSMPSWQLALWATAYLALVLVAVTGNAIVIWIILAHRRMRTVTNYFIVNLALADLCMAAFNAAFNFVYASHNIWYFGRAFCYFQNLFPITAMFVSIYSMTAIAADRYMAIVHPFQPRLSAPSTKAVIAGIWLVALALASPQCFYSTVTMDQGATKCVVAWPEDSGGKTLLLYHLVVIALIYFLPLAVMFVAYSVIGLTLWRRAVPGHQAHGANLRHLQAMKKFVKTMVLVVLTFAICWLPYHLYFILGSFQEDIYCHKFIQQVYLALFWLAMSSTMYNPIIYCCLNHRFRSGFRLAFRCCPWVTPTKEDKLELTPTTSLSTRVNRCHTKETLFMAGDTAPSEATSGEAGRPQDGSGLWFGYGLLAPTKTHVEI", "experiment": "Radioligand binding, NK2 (h)", "conditions": "10^−5 M; agonist radioligand", "procedure": "(§1) Melafenoxate was tested at 10^−5 M, calculated as a % inhibition of control specific binding of a radioactively labeled ligand specific for each target.\n(§2) This binding profile panel was broadly defined with roughly an equal number of selective, central and peripheral therapeutically relevant targets, including native animal tissues, radioligands and specific enzymes involved in cell cycle regulation in accordance with Eurofins Standard Operating Procedure.\n(§3) For radioligand binding experiments, the half maximal inhibitory concentration (IC50) and the half maximal effective concentration (EC50) values were determined (via computer software) by nonlinear regression analysis of the competition curves using Hill equation curve fitting. The inhibition constants (Ki) were calculated using the Cheng-Prusoff equation (Ki=IC50/(1+(L/KD)), where L is the concentration of radioligand in the assay, and KD is the affinity of the radioligand for the receptor.^49\n(§4) The results are expressed as a % control specific binding ([measured specific binding/control specific binding]×100) and as a % inhibition of control specific binding (100−[(measured specific binding/control specific binding)×100]) obtained in the presence of the test compounds. […]"}, "DAT (h)": {"target": "T2, DAT (h) (Homo sapiens, UniProt Q01959)", "T2 construct": "Eurofins", "T2 sequence (Q01959 whole entry)": "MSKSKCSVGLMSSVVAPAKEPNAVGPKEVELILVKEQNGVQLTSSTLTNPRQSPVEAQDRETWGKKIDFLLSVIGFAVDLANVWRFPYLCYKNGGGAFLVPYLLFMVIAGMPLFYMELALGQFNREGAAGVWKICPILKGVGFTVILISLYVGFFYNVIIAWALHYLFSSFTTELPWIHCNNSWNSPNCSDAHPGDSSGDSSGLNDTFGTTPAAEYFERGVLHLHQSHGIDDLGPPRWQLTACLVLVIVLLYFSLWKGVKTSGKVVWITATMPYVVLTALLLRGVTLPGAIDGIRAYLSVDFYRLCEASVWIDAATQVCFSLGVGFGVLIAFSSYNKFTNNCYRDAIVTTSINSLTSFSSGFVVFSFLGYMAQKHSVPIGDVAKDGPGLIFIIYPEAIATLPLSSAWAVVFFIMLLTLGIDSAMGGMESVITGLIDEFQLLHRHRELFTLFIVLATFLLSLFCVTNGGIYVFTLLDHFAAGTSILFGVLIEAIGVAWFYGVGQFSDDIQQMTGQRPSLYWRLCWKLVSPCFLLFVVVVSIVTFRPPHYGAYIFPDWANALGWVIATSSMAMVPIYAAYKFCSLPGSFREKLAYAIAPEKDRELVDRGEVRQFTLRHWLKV", "experiment": "Radioligand binding, DAT (h)", "conditions": "10^−5 M; antagonist radioligand", "procedure": "as §1, §2, §3, §4"}, "C57BL/6J mice [1]": {"system": "C57BL/6J mice", "experiment": "Spontaneous locomotor activity in open-field", "format": "in vivo", "conditions": "3.125, 6.25, 12.5, 25, 50 and 100 mg/kg", "procedure": "(§5) Experiments were carried out on C57BL/6J mice.\nThe effects of NLS-8 (6 doses) on spontaneous locomotor activity were examined. For this purpose, animals received an injection of NLS-8 (3.125, 6.25, 12.5, 25, 50 and 100 mg/kg) or its vehicle (Control group) (N=6/group) and were placed in an open-field for a 90-min session.\nLocomotor activity (distance travelled in the open-field during the first, second and third 30-min period following treatment) was automatically recorded.\nData analysis: between group comparisons of all groups vs. the Control group: unpaired Student's t test."}, "C57BL/6J mice [2]": {"system": "C57BL/6J mice", "experiment": "Scopolamine-induced amnesia in the novel object recognition (NOR) test", "format": "in vivo", "procedure": "The scopolamine-induced amnesia in the novel object recognition (NOR) test in mice is a recognized in vivo model of Alzheimer Disease (AD).\nThe aim of this study is to examine whether Melafenoxate (NLS-8) improves amnesia induced by scopolamine in the NOR test.\nas §5\nIn a first step of the experiment, NLS-8 was tested at 25, 50 and 100 mg/kg.\nAnimals were divided into 6 groups (N=4-10/group).\nAt T=0 min, they received the following treatments by intraperitoneal (i.p.) route: • Control group: vehicle. • Scopolamine group: scopolamine (1.2 mg/kg). • NLS-8 25 group: NLS-8 (25 mg/kg)+scopolamine (1.2 mg/kg). • NLS-8 50 group: NLS-8 (50 mg/kg)+scopolamine (1.2 mg/kg). • NLS-8 100 group: NLS-8 (100 mg/kg)+scopolamine (1.2 mg/kg). • NLS-8 150 group: NLS-8 (150 mg/kg)+scopolamine (1.2 mg/kg).\nAt T=30 min following treatment, animals were subjected to a sample trial. They were placed for a 12-min session in a circular experimental box in which two identical objects were presented (50% of animals: two brown cylindrical vials; 50% of animals: two black rectangular columns). At t=120 min following treatments, mice were subjected to a choice trial. They were placed again for a 12-min session in the same experimental box in which two different objects (a vial and a column) were presented: one of the objects (termed as familiar object) presented in the sample trial and a novel object. Exploration of the objects was recorded by an experimenter blind to treatment and unaware of which object was the novel one and which object was the familiar one.\nDI(discrimination index)=100 ×(exploration time of the novel object−exploration time of the familiar object)/(exploration time of the novel object+exploration time of the familiar object). • Index of exploration: N+F=exploration time of the novel object+exploration time of the familiar object.\n• Within group comparisons: DI vs. 0 (paired Student's t test). • Between group comparisons vs. the Control group and vs. the Scopo group: unpaired Student's t test."}, "[3]": {"conditions": "NLS-8 25-150 mg/kg + scopolamine 1.2 mg/kg i.p."}},
  "note": "Entries after “also recorded” stand apart in the source; their conditions may differ.",
  "data": [
    {"compound": "O=C(COc1ccc(Cl)cc1)OCCNC12CC3CC(CC(C3)C1)C2", "note": "[Melafenoxate, 2-(1-adamantylamino)ethyl 2-(4-chlorophenoxy)acetate]", "values": [
      {"measurement": "inhibition at 10 µM", "setting": "NK2 (h)", "result": 33.5, "unit": "%"},
      {"measurement": "inhibition at 10 µM", "setting": "DAT (h)", "result": 20.9, "unit": "%"},
      {"measurement": "distance travelled in the open-field (locomotor activity) vs. Control group", "setting": "C57BL/6J mice [1]; 90-min session, C57BL/6J mice, listed as NLS-8", "result": "did not significantly modify; also recorded: no significant"},
      {"measurement": "visible side effect", "setting": "C57BL/6J mice [1]; any dose tested", "result": "did not induce visible side effect"},
      {"measurement": "discrimination index vs. 0 (within group)", "setting": "C57BL/6J mice [2]; NLS-8 25 mg/kg + scopolamine 1.2 mg/kg i.p.", "result": "Non-significantly higher than 0"},
      {"measurement": "discrimination index vs. 0 (within group)", "setting": "C57BL/6J mice [2]; NLS-8 50 mg/kg + scopolamine 1.2 mg/kg i.p.", "result": "Significantly higher than 0"},
      {"measurement": "exploration time of objects (N+F) during the choice trial", "setting": "C57BL/6J mice [2]; NLS-8 50 mg/kg + scopolamine 1.2 mg/kg i.p., vs. Control and Scopo groups", "result": "higher than that of Control and Scopo groups"},
      {"measurement": "discrimination index vs. 0 (within group)", "setting": "C57BL/6J mice [2]; NLS-8 100 mg/kg + scopolamine 1.2 mg/kg i.p.", "result": "Non-significantly higher than 0"},
      {"measurement": "discrimination index vs. 0 (within group)", "setting": "C57BL/6J mice [2]; NLS-8 150 mg/kg + scopolamine 1.2 mg/kg i.p.", "result": "Non-significantly higher than 0"},
      {"measurement": "effect on amnesia induced by scopolamine (conclusion)", "setting": "C57BL/6J mice [2]; NLS-8 25-150 mg/kg", "result": "can improve amnesia induced by scopolamine"},
      {"measurement": "discrimination index, NLS-8 groups vs. Control group", "setting": "C57BL/6J mice [2]; [3]", "result": "Not significantly different"},
      {"measurement": "discrimination index, NLS-8 groups vs. Scopo group", "setting": "C57BL/6J mice [2]; [3]", "result": "Not significantly different; also recorded: not significant"},
      {"measurement": "exploration time of objects (N+F) during the choice trial", "setting": "C57BL/6J mice [2]; all other comparisons (other than NLS-8 50 group) vs. Control and vs. Scopo group", "result": "not significant"}
    ]}
  ]
}
